Literature values in patent US20120064155A1, “ORAL PHARMACEUTICAL COMPOSITION FOR USE IN RESPIRATORY DISEASES” (LABORATORIOS SENOSIAIN S.A. DE C.V., priority 2009, published 2012).
≈ marks a conversion by molar mass, not a printed value.

Experiments:
[1] = after oral administration; approximately
[2] = system: plasma proteins

| bound to plasma proteins [2] | water solubility | Compound | start of antihistamine effect [1] |
| --- | --- | --- | --- |
|  |  | CCOC(=O)N1CCC(=C2c3ccc(Cl)cc3CCc3cccnc32)CC1 [Loratadine] | ≤ 30 min |
| 95% | 100 mg/mL (≈ 598 mM) | CNC[C@H](O)c1cccc(O)c1 [Phenylephrine] |  |
